Experimental data as given in PubChem BioAssay AID1963844 (Molecular Pharmacology Branch, DTP, NCI, 2024).
pIC50: −log10 of the molar value.

System: 422866-222-R5-J1-PDC complex spheroid viability
Test: Anticancer human tumor 422866-222-R5-J1-PDC patient-derived pancreatic adenocarcinoma cell line growth inhibition [POLQ]
Settings: for pIC50: curve of first compound; for viability, T/C: stronger effect = lower value
How it was run: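 Patient-derived tumour cells were co-cultured with HUVEC and mesenchymal stem cells as multicellular spheroids at 37 °C. They were treated with POLQ inhibitors (novobiocin, ART-558, RP6685) alone or combined with other agents. Top concentrations were at or near clinical Cmax (otherwise 10 microM; SN-38 at 1 microM), decreasing in half-log steps.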

[1] = second compound 0.0316 µM, first compound 0.0316 µM
[2] = second compound 0.0316 µM, first compound 0.1 µM
[3] = second compound 0.0316 µM, first compound 0.316 µM
[4] = second compound 0.0316 µM, first compound 1 µM
[5] = second compound 0.0316 µM, first compound 3.16 µM
[6] = second compound 0.0316 µM, first compound 10 µM
[7] = second compound 0.1 µM, first compound 0.0316 µM
[8] = second compound 0.1 µM, first compound 0.1 µM
[9] = second compound 0.1 µM, first compound 0.316 µM
[10] = second compound 0.1 µM, first compound 1 µM
[11] = second compound 0.1 µM, first compound 3.16 µM
[12] = second compound 0.1 µM, first compound 10 µM
[13] = second compound 0.316 µM, first compound 0.0316 µM
[14] = second compound 0.316 µM, first compound 0.1 µM
[15] = second compound 0.316 µM, first compound 0.316 µM
[16] = second compound 0.316 µM, first compound 1 µM
[17] = second compound 0.316 µM, first compound 3.16 µM
[18] = second compound 0.316 µM, first compound 10 µM
[19] = second compound 1 µM, first compound 0.0316 µM
[20] = second compound 1 µM, first compound 0.1 µM
[21] = second compound 1 µM, first compound 0.316 µM
[22] = second compound 1 µM, first compound 1 µM
[23] = second compound 1 µM, first compound 3.16 µM
[24] = second compound 1 µM, first compound 10 µM
[25] = second compound 3.16 µM, first compound 0.0316 µM
[26] = second compound 3.16 µM, first compound 0.1 µM
[27] = second compound 3.16 µM, first compound 0.316 µM
[28] = second compound 3.16 µM, first compound 1 µM
[29] = second compound 3.16 µM, first compound 3.16 µM
[30] = second compound 3.16 µM, first compound 10 µM
[31] = second compound 10 µM, first compound 0.0316 µM
[32] = second compound 10 µM, first compound 0.1 µM
[33] = second compound 10 µM, first compound 0.316 µM
[34] = second compound 10 µM, first compound 1 µM
[35] = second compound 10 µM, first compound 3.16 µM
[36] = second compound 10 µM, first compound 10 µM
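Further: spheroids exposed to compounds for one week before readout.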
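Wherever viability, T/C is given: percent of DMSO vehicle wells luminescence so 100% = untreated viability.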

`CC(C)n1c(=O)n(C)c2cnc3cc(F)c(-c4ccc(OCCCN5CCCCC5)nc4)cc3c21` + COC1C(OC(N)=O)C(O)C(Oc2ccc3c(O)c(NC(=O)c4ccc(O)c(CC=C(C)C)c4)c(=O)oc3c2C)OC1(C)C was tested, and the pIC50 (second compound 0.0316 µM) was greater than 7.50, the pIC50 (second compound 0.1 µM) was greater than 7.50 and the pIC50 (second compound 0.316 µM) was greater than 7.50. The pIC50 (second compound 1 µM) was greater than 7.50, the pIC50 (second compound 3.16 µM) was greater than 7.50 and the pIC50 (second compound 10 µM) was greater than 7.50. For the same compound, the viability, T/C [1] was 40.7%, the viability, T/C [2] was 36.1% and the viability, T/C [3] was 34.5%. The viability, T/C [4] was 38.5%, the viability, T/C [5] was 39.4% and the viability, T/C [6] was 37.2%. For the same compound, the viability, T/C [7] was 42.6%, the viability, T/C [8] was 38.5% and the viability, T/C [9] was 39.1%. For the same compound, the viability, T/C [10] was 37.8%, the viability, T/C [11] was 36.9% and the viability, T/C [12] was 36.2%. For the same compound, the viability, T/C [13] was 40.6%, the viability, T/C [14] was 36.1% and the viability, T/C [15] was 42.4%. The viability, T/C [16] was 44.7%, the viability, T/C [17] was 34% and the viability, T/C [18] was 30.2%. The viability, T/C [19] was 34.6%, the viability, T/C [20] was 45.8% and the viability, T/C [21] was 37.2%. For the same compound, the viability, T/C [22] was 38.6%, the viability, T/C [23] was 39.2% and the viability, T/C [24] was 32.1%. The viability, T/C [25] was 44%, the viability, T/C [26] was 40% and the viability, T/C [27] was 42.3%. For the same compound, the viability, T/C [28] was 33.4%, the viability, T/C [29] was 35.4% and the viability, T/C [30] was 39.6%. It also gave a viability, T/C [31] of 39.1%, a viability, T/C [32] of 39% and a viability, T/C [33] of 38.8%. It also gave a viability, T/C [34] of 43.4%, a viability, T/C [35] of 35.2% and a viability, T/C [36] of 32.6%.

In the case of `C=CC(=O)N1CCN(c2nc(=O)n(-c3c(C)ccnc3C(C)C)c3nc(-c4c(O)cccc4F)c(F)cc23)C(C)C1` (stereo unspecified) + Cc1cccc(N(C)C(=O)C2C(O)CCN2c2nc(C)cc(C(F)(F)F)c2C#N)c1, the pIC50 (second compound 0.0316 µM) was greater than 7.50, the pIC50 (second compound 0.1 µM) was greater than 7.50 and the pIC50 (second compound 0.316 µM) was greater than 7.50. It also gave a pIC50 (second compound 1 µM) greater than 7.50, a pIC50 (second compound 3.16 µM) greater than 7.50 and a pIC50 (second compound 10 µM) greater than 7.50. It also gave a viability, T/C [1] of 29.6%, a viability, T/C [2] of 26.5% and a viability, T/C [3] of 24.8%. For the same compound, the viability, T/C [4] was 22.2%, the viability, T/C [5] was 23.5% and the viability, T/C [6] was 27%. The viability, T/C [7] was 27.8%, the viability, T/C [8] was 25.2% and the viability, T/C [9] was 25%. For the same compound, the viability, T/C [10] was 23.5%, the viability, T/C [11] was 21.2% and the viability, T/C [12] was 29.3%. It also gave a viability, T/C [13] of 34.9%, a viability, T/C [14] of 22.1% and a viability, T/C [15] of 25.3%. The viability, T/C [16] was 26%, the viability, T/C [17] was 22.8% and the viability, T/C [18] was 25.5%. For the same compound, the viability, T/C [19] was 30.3%, the viability, T/C [20] was 25.7% and the viability, T/C [21] was 26.1%. It also gave a viability, T/C [22] of 21.8%, a viability, T/C [23] of 26.7% and a viability, T/C [24] of 27.4%. For the same compound, the viability, T/C [25] was 32.3%, the viability, T/C [26] was 28.7% and the viability, T/C [27] was 31.4%. It also gave a viability, T/C [28] of 25.9%, a viability, T/C [29] of 23.7% and a viability, T/C [30] of 25.7%. The viability, T/C [31] was 35.3%, the viability, T/C [32] was 28% and the viability, T/C [33] was 25.1%. It also gave a viability, T/C [34] of 26%, a viability, T/C [35] of 32% and a viability, T/C [36] of 28.3%.

In the case of `O=C(Nc1ccc(O)c(NS(=O)(=O)c2ccc(F)cc2)c1)c1ccc(-c2ccccc2)cc1` + Nc1ccc(C#CCN(C(=O)Cc2ncc(C(F)(F)F)cc2C(F)(F)F)c2ccc(F)cc2)nn1, the pIC50 (second compound 0.0316 µM) was less than 5.00, the pIC50 (second compound 0.1 µM) was less than 5.00 and the pIC50 (second compound 0.316 µM) was less than 5.00. For the same compound, the pIC50 (second compound 1 µM) was less than 5.00, the pIC50 (second compound 3.16 µM) was less than 5.00 and the pIC50 (second compound 10 µM) was less than 5.00. It also gave a viability, T/C [1] of 98.8%, a viability, T/C [2] of 84.9% and a viability, T/C [3] of 81.6%. It also gave a viability, T/C [4] of 86.9%, a viability, T/C [5] of 83.7% and a viability, T/C [6] of 113%. The viability, T/C [7] was 105%, the viability, T/C [8] was 94.3% and the viability, T/C [9] was 97.1%. It also gave a viability, T/C [10] of 90.5%, a viability, T/C [11] of 99.8% and a viability, T/C [12] of 123%. For the same compound, the viability, T/C [13] was 88.7%, the viability, T/C [14] was 90% and the viability, T/C [15] was 94.2%. It also gave a viability, T/C [16] of 89.9%, a viability, T/C [17] of 97.3% and a viability, T/C [18] of 116%. It also gave a viability, T/C [19] of 107%, a viability, T/C [20] of 84.5% and a viability, T/C [21] of 92.6%. For the same compound, the viability, T/C [22] was 87.9%, the viability, T/C [23] was 88.6% and the viability, T/C [24] was 117%. The viability, T/C [25] was 107%, the viability, T/C [26] was 99% and the viability, T/C [27] was 99.6%. The viability, T/C [28] was 78.7%, the viability, T/C [29] was 103% and the viability, T/C [30] was 109%. For the same compound, the viability, T/C [31] was 105%, the viability, T/C [32] was 85.2% and the viability, T/C [33] was 80.8%. The viability, T/C [34] was 93.8%, the viability, T/C [35] was 101% and the viability, T/C [36] was 102%.
